Reference: paper PMC7440915, “Discovery of surrogate agonists for visceral fat Treg cells that modulate metabolic indices in vivo” (eLife, 2020)
“Also recorded” adds a separate entry of the source. Where no end group is shown, it is not given here.

Legend:
vTreg53 Treg cells = assay: RNA-seq of transferred clonotype^+ Treg cells after immunization; type: in vivo, mouse
From the text: Figure 5. Transcriptional analyses of vTreg53 Treg cells stimulated by Fat1562 in vivo. (A–C) CD45.2^+ vTreg53 Treg cells were transferred i.v. into CD45.1^+ B6 mice. 6 weeks later, the recipient mice were immunized with CFA alone or CFA/Fat1562 s.c., and one week later, boosted with IFA alone or IFA/Fat1562 i.p. CD45.2^+ clonotype^+ Treg cells were sorted from Spl/LNs or VAT of the recipient mice one week later for RNA-Seq. (A) Volcano plot comparing gene expression of transferred clonotype^+ Treg cells in the VAT and Spl/LNs of recipient mice immunized with adjuvant alone (left) or with adjuvant/Fat1562 (right). VAT-Treg signature genes are highlighted in red (induced) or blue (repressed). The number of genes from each signature preferentially expressed by one or the other population are shown at the top. (B) GSEA analysis of top KEGG pathways (p<0.05) that are enriched in cells activated by adjuvant/Fat1562 compared with adjuvant alone in VAT (left) or Spl/LN (right). NES, normalized enrichment score. FDR, false discovery rate. (C) Normalized reads of Pparg transcript in CD45.2^+ clonotype^+ Treg cells sorted from mice immunized with adjuvant alone or adjuvant/Fat1562. Data are mean ± SD. (D) Volcano plot comparing gene expression of transferred clonotype^+ Treg cells in mice immunized with adjuvant/Fat1562 and adjuvant alone in the VAT (left) and spleen (right). Representative transcripts are highlighted.
6–8 week-old B6.CD45.1^+ mice were transferred with Tg^+ Treg cells from Spl/LNs, and six weeks later were primed with 200 μg CFA/peptides s.c. and boosted with 100 μg IFA/peptides i.p. as described in the ‘Treg transfer and peptide immunization’ section. Biological replicates (n ≥ 2) of 1000 clonotype^+ CD45.2^+ Treg cells from the Spl/LNs or VAT of recipient mice were double-sorted by Moflo directly into 5ɥl lysis buffer (TCL Buffer (Qiagen) with 1% 2-Mercaptoethanol), Smart-seq2 libraries were prepared as previously described ([Picelli et al., 2014]) with slight modifications. Briefly, total RNA was captured and purified on RNAClean XP beads (Beckman Coulter). Polyadenylated mRNA was then selected using an anchored oligo(dT) primer (5′–[…]30VN-3) and converted to cDNA via reverse transcription. First-strand cDNA was subjected to limited PCR amplification followed by Tn5 transposon-based fragmentation using the Nextera XT DNA Library Preparation Kit (Illumina). Samples were then PCR amplified for 18 cycles using barcoded primers such that each sample carried a specific combination of eight-base Illumina P5 and P7 barcodes and were pooled together prior to Smart sequencing. Smart-seq paired-end sequencing was performed on an Illumina NextSeq500 using 2 × 38 bp reads with no further trimming. Transcripts were quantified by the Broad Technology Labs computational pipeline with Cuffquant version 2.2.1 ([Trapnell et al., 2012]). Normalized reads were further filtered by minimal expression (>10) and coefficient of variation (<0.7), and then analyzed by Multiplot Studio in the GenePattern software package. Pathway enrichment analysis was done using GSEA.

HFD-fed B6.CD45.1^+ mice = assay: Anti-TNFα and Fat1562 immunization in HFD-fed mice with vTreg53 Treg transfer; type: in vivo, mouse; settings: n ≥ 5, anti-TNFα 10 μg/g i.p. twice a week
From the text: Figure 7. Immunization with Fat1562 following vTreg53 Treg transfer ameliorates HFD-induced insulin resistance. (A–F) Metabolic indices of mice treated as in Figure 6A (n ≥ 7). (A) Body weight. (B) Insulin tolerance test (ITT). (C) Area over curve for ITT analysis. (D) Glucose tolerance test (GTT). (E) Area under curve for GTT analysis. (F) Plasma insulin levels after 6 hr of fasting. Data shown are representative of at least two independent experiments. (G) Scheme of the anti-TNFα experiment. (H) Number of total Treg cells in VAT (n ≥ 5). (I) Number of CD11c^hi inflammatory macrophages in VAT (n ≥ 5). (J) ITT (n ≥ 5). (K) Area over curve for ITT analysis (n ≥ 5). Data are mean ± SD. Figure 7—figure supplement 1. Absolute blood glucose levels. ITT analysis of mice transferred with vTreg53 TCR-tg Tregs and immunized with adjuvant/Fat1562 or adjuvant alone. Data shown are representative of at least two independent experiments (n ≥ 5). [drawing 7]
12-week-old B6.CD45.1^+ mice were fed with HFD and injected intraperitoneally with 10 μg/g body weight anti-TNFα (XT3.11, BioXCell) or isotype control IgG (HRPN, BioXCell) twice a week for 6 weeks, transferred with 0.4 million Treg cells from pooled Spl/LNs of 6-8wk-old male CD45.2^+ Tg^+ Foxp3-GFP^KI/y mice. […] One week after the IFA/peptides injection, ITT (0.75unit/kg insulin) was performed and the composition of different immunocytes were determined.
For GTT, mice were fasted for 15 hr overnight, weighed, and tested for fasting blood-glucose concentrations. […] Blood-glucose levels were measured before and 20, 40, 60, 90, and 120 min after glucose injection. […] Blood-glucose levels were measured before and 20, 40, 60, 90, and 120 min after insulin injection, and were normalized to the blood-glucose levels before insulin injection. The area under the curve (for GTT) or area over the curve (for ITT) were calculated using GraphPad Prism 7.0.

With TMYKNPRPMAATG [Fat1562] as the sequence, how does the “Pparg mRNA levels in Spl/LN relative to VAT” value (vTreg53 Treg cells; Spl/LN vs Fat1562-stimulated VAT Treg cells) read?
Its value is “substantially lower”.

And the “Pparg mRNA levels” value (vTreg53 Treg cells; Treg cells stimulated by Fat1562 in vivo (Spl/LN))?
The value was “significantly increased; also recorded: increase in Pparg mRNA levels”.

And the “Lag3 and Tigit expression” value (vTreg53 Treg cells; VAT, adjuvant/Fat1562 vs adjuvant alone)?
Its value is “upregulated”.

What about the “pathway enrichment in VAT Treg cells, GSEA” value (vTreg53 Treg cells; VAT, adjuvant/Fat1562 vs adjuvant alone: cell division and glycolysis) of the same sequence?
The value was “significant enrichment in pathways and transcripts related to cell division (E2F targets, G2M checkpoint, MYC targets, Mitotic spindle) and glycolysis”.

What about the “VAT-Treg signature gene expression” value (vTreg53 Treg cells; clonotype^+ VAT Treg cells, adjuvant/Fat1562) of the same sequence?
The value was “preserved the typical VAT-Treg characteristics; also recorded: maintained the typical VAT-Treg signature”.

And the “cholesterol homeostasis genes” value (vTreg53 Treg cells; lymphoid organs, adjuvant/Fat1562 vs adjuvant alone (e.g. Pparg, Nfil3, Srebf2))?
The value was “enrichment of genes involved in cholesterol homeostasis”.

And the “inflammatory cytokine response genes” value (vTreg53 Treg cells; lymphoid organs, adjuvant/Fat1562 vs adjuvant alone, IFNα, IFNγ, TNFα)?
The value was “increased expression of genes associated with responses to inflammatory cytokines (IFNα, IFNγ, and TNFα)”.

And the “insulin sensitivity” value (HFD-fed B6.CD45.1^+ mice; ITT, 0.75unit/kg insulin)?
Its value is “slightly improved insulin sensitivity”.

And the “number of CD11c^hi pro-inflammatory macrophages in VAT” value (HFD-fed B6.CD45.1^+ mice; VAT)?
The value was “reduced the number of CD11c^hi pro-inflammatory macrophages”.

What about the “number of VAT-Treg cells” value (HFD-fed B6.CD45.1^+ mice; VAT) of the same sequence?
The value was “moderately increased the numbers of VAT-Treg cells”.
